The record followed here is ChEMBL document CHEMBL6115048, “Uncovering α-Selectivity for Liver X Receptor Agonists for Lipotoxic Cancer Therapies” (J Med Chem, 2025).

Calls of active or inactive are those of the source. The calls are words filed in the database; no cut-off is given here.

The term EC50 denotes the concentration needed to bring the measured effect to its halfway point.

The subject of data set [1] is Hep 3B2. The data set is described as follows: Induction of oxidative stress in human Hep3B cells assessed as increase in SOD1 expression measured after 3 days in presence of sorafenib by Western blot analysis. The conditions noted are these: time 3.0 day. It is filed as functional, cell-based. A general note: Immunoblotting shows a protein as a band on a membrane.

For data set [2], the system named is Hep 3B2. The data set is described as follows: Induction of endoplasmic reticulum (ER) stress in human Hep3B cells assessed as increase in CHOP expression measured after 3 days in presence of sorafenib by Western blot analysis. It is filed as functional, cell-based. The conditions noted are these: time 3.0 day.
The test system of data set [3] is Hep 3B2. Description: Antiproliferative activity against human Hep3B cells assessed as reduction in cell viability measured after 5 days in presence of sorafenib by Celltiter-glo assay. Particulars: 120 h. Format: functional, cell-based. For orientation: ATP-based viability assays read luminescence as a measure of living cells.
The test system of the next data set is BNL CL.2. Description: Cytotoxicity against mouse BNL CL.2 cells assessed as reduction in cell viability at 0.01 to 100 uM measured after 5 days in presence of sorafenib by CellTiter-Glo assay. Format: toxicity, cell-based. The conditions noted are these: bnl cl.2, 120 h, dose 0.01-100 µM, time 5 day.
Data set [4] concerns Hep 3B2. The data set is described as follows: Induction of endoplasmic reticulum (ER) stress in human Hep3B cells assessed as increase in GADD34 expression measured after 3 days in presence of sorafenib by Western blot analysis. Format: functional, cell-based. The conditions noted are these: time 3.0 day.
Data set [5] concerns the target T1, Peroxisome proliferator-activated receptor alpha (Homo sapiens) (UniProt Q07869).
T1 sequence (whole entry): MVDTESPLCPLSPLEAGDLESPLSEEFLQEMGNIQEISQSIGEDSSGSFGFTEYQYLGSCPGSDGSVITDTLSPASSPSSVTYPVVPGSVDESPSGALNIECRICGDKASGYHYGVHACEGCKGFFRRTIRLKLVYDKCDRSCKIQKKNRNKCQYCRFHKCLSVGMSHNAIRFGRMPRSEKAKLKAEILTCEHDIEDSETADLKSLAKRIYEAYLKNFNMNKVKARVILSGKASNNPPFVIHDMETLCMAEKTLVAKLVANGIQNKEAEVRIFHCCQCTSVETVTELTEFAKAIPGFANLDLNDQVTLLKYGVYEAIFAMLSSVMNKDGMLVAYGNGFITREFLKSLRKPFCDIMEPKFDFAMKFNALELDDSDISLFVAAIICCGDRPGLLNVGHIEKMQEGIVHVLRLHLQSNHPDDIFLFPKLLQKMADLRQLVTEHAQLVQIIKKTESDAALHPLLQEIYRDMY
The data set is described as follows: Agonist activity at PPARalpha (unknown origin) transfected in human HepG2 cells co-transfected with renilla reniformis luciferase reporter at 10 uM incubated for 24 hrs by dual-luciferase reporter gene assay. It is filed as cell-based. (In general: A reporter such as luciferase makes a cellular process visible.)

The subject of data set [6] is Hepatocellular carcinoma organoid. The data set is described as follows: Antiproliferative activity against C57BL/6 mouse Hepatocellular carcinoma organoids harboring myristoylated Akt1 and overexpressing Myc assessed as reduction in cell viability at 1 to 5 uM measured after 5 days in presence of sorafenib by Celltiter-glo assay. Format: functional, tissue-based. Particulars: Neoplasm, dose 1-5 µM, time 5.0 day.

For data set [7], the system named is Hep 3B2. Description: Antiproliferative activity against human Hep3B cells assessed as reduction in cell viability measured after 5 days by Celltiter-glo assay. Format: functional, cell-based. Particulars: time 5.0 day.
Data set [8] concerns Hep 3B2. Description: Antiproliferative activity against human Hep3B cells assessed as reduction in cell viability at 0.01 to 100 uM measured after 5 days in presence of sorafenib and sodium oleate by CellTiter-Glo assay. It is filed as functional, cell-based. The conditions noted are these: dose 0.01-100 µM, time 5.0 day.
The target in data set [9] is T2, Estrogen receptor (Homo sapiens) (UniProt P03372).
T2 sequence (whole entry): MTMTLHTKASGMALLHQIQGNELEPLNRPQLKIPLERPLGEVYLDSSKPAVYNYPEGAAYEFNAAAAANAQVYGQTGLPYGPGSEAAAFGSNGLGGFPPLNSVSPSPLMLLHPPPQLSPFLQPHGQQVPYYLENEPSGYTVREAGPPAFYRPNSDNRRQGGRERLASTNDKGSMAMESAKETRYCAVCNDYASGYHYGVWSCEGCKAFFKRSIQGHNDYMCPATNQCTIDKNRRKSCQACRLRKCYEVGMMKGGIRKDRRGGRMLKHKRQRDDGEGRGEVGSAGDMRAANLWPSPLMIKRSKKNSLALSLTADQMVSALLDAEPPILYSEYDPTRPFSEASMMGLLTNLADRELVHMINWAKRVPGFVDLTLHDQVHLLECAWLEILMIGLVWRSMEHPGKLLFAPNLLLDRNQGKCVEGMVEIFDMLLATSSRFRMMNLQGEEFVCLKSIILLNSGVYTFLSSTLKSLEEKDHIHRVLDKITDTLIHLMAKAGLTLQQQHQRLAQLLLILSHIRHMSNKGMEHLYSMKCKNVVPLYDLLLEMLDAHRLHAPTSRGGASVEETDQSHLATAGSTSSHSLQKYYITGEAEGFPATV
The data set is described as follows: Agonist activity at ERalpha (unknown origin) transfected in human HepG2 cells co-transfected with renilla reniformis luciferase reporter at 10 uM incubated for 24 hrs by dual-luciferase reporter gene assay. Format: cell-based.

The target of data set [10] is Estrogen receptor beta (Homo sapiens) (UniProt Q92731). The data set is described as follows: Agonist activity at ERbeta (unknown origin) transfected in human HepG2 cells co-transfected with renilla reniformis luciferase reporter at 10 uM incubated for 24 hrs by dual-luciferase reporter gene assay. It is filed as cell-based.
Estrogen receptor beta (Homo sapiens), sequence (Q92731 whole entry): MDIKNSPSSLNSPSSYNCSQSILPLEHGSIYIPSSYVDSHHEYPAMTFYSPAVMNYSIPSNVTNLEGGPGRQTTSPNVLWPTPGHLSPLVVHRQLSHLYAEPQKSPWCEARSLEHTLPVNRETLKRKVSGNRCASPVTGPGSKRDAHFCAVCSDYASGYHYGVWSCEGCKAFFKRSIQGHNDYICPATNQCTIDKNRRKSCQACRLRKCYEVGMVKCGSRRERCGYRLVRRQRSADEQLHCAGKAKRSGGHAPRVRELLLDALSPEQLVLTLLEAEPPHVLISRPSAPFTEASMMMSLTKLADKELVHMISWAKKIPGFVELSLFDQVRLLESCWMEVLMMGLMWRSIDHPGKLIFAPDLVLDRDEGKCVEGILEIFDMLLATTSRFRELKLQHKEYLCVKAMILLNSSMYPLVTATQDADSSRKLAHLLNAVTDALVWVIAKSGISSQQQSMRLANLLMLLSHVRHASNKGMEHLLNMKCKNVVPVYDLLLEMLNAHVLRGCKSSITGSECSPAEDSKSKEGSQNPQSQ
For data set [11], the target named is T3, Nuclear receptor subfamily 1 group I member 3 (Mus musculus, UniProt O35627).
T3 sequence (O35627 whole entry): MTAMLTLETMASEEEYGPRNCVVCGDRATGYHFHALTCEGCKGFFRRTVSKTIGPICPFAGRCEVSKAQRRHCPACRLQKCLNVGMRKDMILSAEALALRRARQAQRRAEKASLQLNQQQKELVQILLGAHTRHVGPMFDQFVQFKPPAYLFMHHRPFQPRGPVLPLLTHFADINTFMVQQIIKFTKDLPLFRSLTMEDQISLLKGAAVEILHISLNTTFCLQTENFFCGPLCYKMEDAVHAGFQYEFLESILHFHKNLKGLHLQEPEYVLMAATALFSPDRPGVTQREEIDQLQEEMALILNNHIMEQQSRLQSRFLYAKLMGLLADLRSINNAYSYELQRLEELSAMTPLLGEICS
Description: Agonist activity at mouse CAR transfected in human HepG2 cells co-transfected with p2B6-luciferase reporter at 10 uM incubated for 24 hrs by dual-luciferase reporter gene assay. It is filed as cell-based. The conditions noted are these: hepg2, 24 h.

The target in data set [12] is T4, Bile acid receptor (Homo sapiens) (UniProt Q96RI1).
T4 sequence (whole entry): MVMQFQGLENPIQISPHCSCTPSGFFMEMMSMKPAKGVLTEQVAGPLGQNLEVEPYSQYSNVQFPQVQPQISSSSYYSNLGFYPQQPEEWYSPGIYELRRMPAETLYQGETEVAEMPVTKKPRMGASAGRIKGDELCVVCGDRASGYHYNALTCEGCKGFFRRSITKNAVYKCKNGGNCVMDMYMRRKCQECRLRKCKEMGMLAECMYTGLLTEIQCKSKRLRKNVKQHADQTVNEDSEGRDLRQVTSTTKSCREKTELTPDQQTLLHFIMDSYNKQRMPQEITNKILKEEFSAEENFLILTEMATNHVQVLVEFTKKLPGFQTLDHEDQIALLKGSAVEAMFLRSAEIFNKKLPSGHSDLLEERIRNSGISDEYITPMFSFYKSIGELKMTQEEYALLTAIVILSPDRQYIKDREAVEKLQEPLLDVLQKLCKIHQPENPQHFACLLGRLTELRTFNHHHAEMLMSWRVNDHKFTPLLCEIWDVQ
Description: Agonist activity at FXR (unknown origin) transfected in human HepG2 cells co-transfected with renilla reniformis luciferase reporter at 10 uM incubated for 24 hrs by dual-luciferase reporter gene assay. Format: cell-based.

For `O=C1C(Nc2ccc(N3CCCCC3)cc2)=C(c2ccccc2)C(=O)N1Cc1ccccc1`, the outcome (with Hep 3B2 [1]; with Hep 3B2 [2]; in the data set on Hep 3B2 [4]; in data set [6]) was Active. Moreover, in the data set with Hep 3B2 [3], the EC50 was 1.7 µM. Moreover, the Activity result with BNL CL.2 was “Toxic”; in [11] it was “Not_active”. In addition, the outcome (in data set [5]; in the data set on Hep 3B2 [7]; in the data set on Hep 3B2 [8]; in [9]; in data set [10]; in data set [12]) was inactive.
